According to patent US20240254138A1, “TRICYCLIC PYRIMIDINES AS CYCLIN-DEPENDENT KINASE 7 (CDK7) INHIBITORS” (JANSSEN PHARMACEUTICA NV, priority 2021, published 2024):
Like-named read-outs stand apart in the source and are kept apart here.

Legend:
[1] = system: RNA Polymerase II Serine 5 phosphorylation (Rpb1 CTD, downstream substrate of CDK7) in A549 cells; experiment: Imaging-based cellular RNA PolII Ser5 phosphorylation assay in A549 cells; assay type: cell-based, human; conditions: wild-type CDK7, RNA PolII Ser5 phosphorylation, averaged over all measurements; for IC50: Homo sapiens, A549, A549 cells, read-out: CDK7_A549 Wild-type CDK7 (pIC50) (converted)
Procedure, shortened: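 IC50 derived by fitting % control (DMSO high, 10 μM reference low) against concentration, with Hill slope. Readout: high-content imaging of phospho-Ser5 Rpb1 CTD antibody staining in fixed, permeabilized A549 cells exposed to compound 3 h after 20 h culture in 1% FBS DMEM.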

[2] = system: RNA Polymerase II Serine 5 phosphorylation in A549 cells overexpressing CDK7-mutant (C312S); experiment: Imaging-based cellular RNA PolII Ser5 phosphorylation assay in A549 cells overexpressing CDK7-mutant (C312S); assay type: cell-based, human; conditions: RNA PolII Ser5 phosphorylation, averaged over all measurements; for IC50: Homo sapiens, A549, A549 cells overexpressing CDK7-mutant (C312S), read-out: CDK7_A549 mutant hCDK7(pIC50) (converted); for CDK7_A549 mutant hCDK7(pIC50): A549 cells overexpressing CDK7-mutant (C312S)
Procedure, shortened: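 Readout was automated imaging of anti-phospho-Ser5 Rpb1 CTD immunofluorescence, with IC50 fitted to % control versus concentration. Cells were A549 stably overexpressing non-covalently targetable CDK7 C312S alongside wild-type, exposed to compound 3 h at 37 °C. DMSO and 10 μM reference compound served as controls.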

[3] = biological target: CDK7/cyclinH/MAT1 trimeric complex (Homo sapiens, UniProt P50613); experiment: In vitro CDK7 assay, potency of irreversible covalent inhibitors (kinact/KI), coupled PK/LDH ADP readout at 340 nm
Chain of CDK7/cyclinH/MAT1 trimeric complex (P50613 whole entry): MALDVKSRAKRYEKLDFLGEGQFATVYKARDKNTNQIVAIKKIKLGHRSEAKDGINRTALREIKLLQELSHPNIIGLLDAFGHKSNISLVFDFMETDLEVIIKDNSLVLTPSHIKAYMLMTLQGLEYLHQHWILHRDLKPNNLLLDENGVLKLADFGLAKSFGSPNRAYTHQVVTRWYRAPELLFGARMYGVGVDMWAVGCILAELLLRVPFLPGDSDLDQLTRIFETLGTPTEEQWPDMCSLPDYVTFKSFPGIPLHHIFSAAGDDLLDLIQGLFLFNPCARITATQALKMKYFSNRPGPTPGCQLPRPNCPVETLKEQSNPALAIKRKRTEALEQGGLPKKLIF
Chain of CDK7/cyclinH/MAT1 trimeric complex (P51946 whole entry partner): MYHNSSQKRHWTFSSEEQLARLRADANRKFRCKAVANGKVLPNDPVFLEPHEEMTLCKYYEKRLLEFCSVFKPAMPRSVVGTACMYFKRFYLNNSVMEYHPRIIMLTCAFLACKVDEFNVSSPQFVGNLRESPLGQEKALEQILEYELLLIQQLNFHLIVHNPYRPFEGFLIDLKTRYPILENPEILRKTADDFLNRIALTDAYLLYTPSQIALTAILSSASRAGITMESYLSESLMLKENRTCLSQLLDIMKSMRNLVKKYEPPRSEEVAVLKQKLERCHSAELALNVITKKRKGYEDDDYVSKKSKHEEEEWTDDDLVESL
Chain of CDK7/cyclinH/MAT1 trimeric complex (P51948 whole entry partner): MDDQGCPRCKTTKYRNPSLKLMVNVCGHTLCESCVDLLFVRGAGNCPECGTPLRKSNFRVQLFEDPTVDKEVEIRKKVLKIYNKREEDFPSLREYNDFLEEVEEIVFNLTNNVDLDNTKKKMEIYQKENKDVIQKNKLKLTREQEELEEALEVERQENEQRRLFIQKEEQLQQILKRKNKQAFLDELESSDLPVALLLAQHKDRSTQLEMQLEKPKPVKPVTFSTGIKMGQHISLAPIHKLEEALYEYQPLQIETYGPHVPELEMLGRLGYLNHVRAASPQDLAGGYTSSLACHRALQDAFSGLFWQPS

[4] = CDK7 (20 nM enz.) (KI, μM), 20 nM enzyme
[5] = read-out: CDK7 (20 nM enz.) (kinact, s^−1), 20 nM enzyme
[6] = read-out: CDK7 (20 nM enz.) (kinact/KI, M^−1*s^−1), 20 nM enzyme
[7] = CDK7 (KI(μM)), […], 1 mM ATP, room temperature, averaged values over all measurements
[8] = read-out: CDK7 (kinact, s^−1), kinact = maximal rate of inactivation, 1 mM ATP, room temperature, averaged values over all measurements
[9] = read-out: CDK7 (kinact/KI, M^−1*s^−1), potency of irreversible covalent inhibitors, 1 mM ATP, room temperature, averaged values over all measurements
[10] = read-out: CDK7 (20 nM enz.) (kobs/[I], M^−1*s^−1), 20 nM enzyme

Structure (SMILES)	IC50 [1] [nM]	IC50 [2] [nM]	Ki [3, 4] [µM]	kinact [3, 5] [s⁻¹]	kinact/KI [3, 6] [M⁻¹ s⁻¹]	melting point [°C]	Ki [3, 7] [µM]	kinact [3, 8] [s⁻¹]	kinact/KI [3, 9] [M⁻¹ s⁻¹]	CDK7_A549 Wild-type CDK7 (pIC50) ([1]; A549 cells)	CDK7_A549 mutant hCDK7(pIC50) [2]	kinact/KI [3, 10] [M⁻¹ s⁻¹]	CDK7 (20 nM enz.) (kinact, s^−1) ([3]; 20 nM enzyme) [s⁻¹]
C#Cc1cc(C2CCN(C3CN(C(=O)C=C)C3)CC2)cc2c1O[C@H](C)c1c(N3CCOCC3)ccnc1N2 (single isomer, unassigned) [Compound 268]	1070	> 10000	0.934	4.13e-05	44.2	236.7	–	–	–	–	–	–	–
C=CC(=O)Nc1ccc(C(=O)Nc2ccc3c(c2)Nc2nccc(C4CCOCC4)c2CO3)cc1 [Compound 1]	132	~8510	0.0456	5.77e-05	1270	281.1	0.107	0.0003	2030	–	–	–	–
C=CC(=O)N1CC(N2CCC(c3ccc4c(c3)OCc3c(N5CCOCC5)ccnc3N4)CC2)C1 [Compound 35]	692	> 10000	–	–	–	117.9	0.123	0.000133	1090	–	–	–	–
C=CC(=O)N1CC(N2CCC(c3cc4c(cn3)OCc3c(N5CCOCC5)ccnc3N4)CC2)C1 [Compound 83]	–	–	–	–	–	238.4	–	–	–	6.95	<5	782	–
C=CC(=O)N1CC(N2CCC(c3cc4c(c(C)n3)OCc3c(-c5cnn(C)c5)ccnc3N4)CC2)C1 [Compound 164]	55	> 10000	0.0786	–	1010	277.8	–	–	–	–	–	–	7.933e-05
C=CC(=O)N1CC(N2CCC(c3cc4c(c(C)n3)OCc3c(N5CCOCC5)ccnc3N4)CC2)C1 [Compound 173]	64.6	–	0.0574	7.26e-05	1260	236.9	–	–	–	–	<5.4	–	–
C=CC(=O)N1CC(N2CCC(c3cc4c(c(C5CC5)n3)OCc3c(N5CCOCC5)ccnc3N4)CC2)C1 [Compound 272]	44.7	> 10000	0.0212	2.13e-05	1010	189.9	–	–	–	–	–	–	–

Results, then the compound that gave them:

IC50 [1] [nM]	IC50 [2] [nM]	Ki [3, 4] [µM]	kinact [3, 5] [s⁻¹]	kinact/KI [3, 6] [M⁻¹ s⁻¹]	melting point [°C]	Ki [3, 7] [µM]	kinact [3, 8] [s⁻¹]	kinact/KI [3, 9] [M⁻¹ s⁻¹]	CDK7_A549 Wild-type CDK7 (pIC50) ([1]; A549 cells)	CDK7_A549 mutant hCDK7(pIC50) [2]	kinact/KI [3, 10] [M⁻¹ s⁻¹]	CDK7 (20 nM enz.) (kinact, s^−1) ([3]; 20 nM enzyme) [s⁻¹]	Structure (SMILES)
209	> 10000	4.52	0.000132	29.2	220.7	–	–	–	–	–	–	–	C=CC(=O)N1CC(N2CCC(c3cc(C#N)c4c(c3)Nc3nccc(N5CCOCC5)c3[C@H](C)O4)CC2)C1 (single isomer, unassigned) [Compound 353]
97.7	> 10000	0.0496	1.97e-05	398	148	–	–	–	–	–	–	–	C=C(C(=O)N1CC(N2CCC(c3cc4c(c(C)n3)O[C@@H](C)c3c(N5CCOCC5)ccnc3N4)CC2)C1)n1cccn1 (single isomer, unassigned) [Compound 523]
14.1	> 2510	0.0767	2.61e-05	340	131.3	–	–	–	–	–	–	–	C=C(C(=O)N1CC(N2CCC(c3cc4c(c(C)n3)O[C@H](C)c3c(N5CCOCC5)ccnc3N4)CC2)C1)n1cccn1 (single isomer, unassigned) [Compound 526]
138	> 10000	0.233	2.96e-05	127	178.5	–	–	–	–	–	–	–	CC#CC(=O)N1CC(N2CCC(c3cc4c(c(C)n3)OCc3c(N5CCOCC5)ccnc3N4)CC2)C1 [Compound 279]
123	> 10000	–	–	–	256.7	–	–	–	–	–	1170	–	C=CC(=O)N1CC(N2CCC(c3cc4c(c(C#N)n3)OCc3c(N5CCOCC5)ccnc3N4)CC2)C1 [Compound 306]
245	> 10000	0.0216	3e-05	1390	229.2	–	–	–	–	–	–	–	CC#CC(=O)N1CC(N2CCC(c3cc4c(c(-c5ncc[nH]5)n3)OCc3c(N5CCOCC5)ccnc3N4)CC2)C1 [Compound 369]
162	> 3980	–	–	–	195.5	–	–	–	–	–	1740	–	C=CC(=O)N1CC(N2CCC(c3cc4c(c(-c5ncc[nH]5)n3)OCc3c(N5CCOCC5)ccnc3N4)CC2)C1 [Compound 378]
155	> 10000	0.0766	4.63e-05	605	174.8	–	–	–	–	–	–	–	CC#CC(=O)N1CC(N2CCC(c3cc4c(c(C5CC5)n3)OCc3c(N5CCOCC5)ccnc3N4)CC2)C1 [Compound 403]
